Assay results as given in patent US20080161272A1, “Ceramide derivatives, method for preparing the same, and therapeutic agent for treating atopic dermatitis comprising the ceramide derivatives” (Neopharm Co., Ltd., priority 2006, published 2008).

Columns and labels:
T lymphocyte = experiment: Effects on generation of cytokines in ConA-activated spleen T lymphocyte (ELISA); type: cell-based; details: Balb/C mouse spleen cells, ConA 1 μg/ml, pre-treated 30 minutes before, 48 hours, 1, and 20 μM, FIG. 1
Method: First, in order to determine effects of K6PC-9P and K6PC-9 on generation of cytokines in T lymphocyte, spleen T lymphocyte was separated, and then treated with ConA for its activation. […] Accordingly, substances that increase the expression of the Th1 cytokines or suppress the expression of the Th2 cytokines may be useful to treat the atopic dermatitis. In this experiment, the K6PC-9P and K6PC-9 were evaluated for their control abilities to express the Th1 cytokine, interleukin-2, and the Th2 cytokine, interleukin-4.
The mouse spleen was extracted from a Balb/C mouse to separate splenocyte. The separated splenocyte was plated onto a 96-well plate in a density of 1×10^6 cells/ml. Then, T lymphocyte in the splenocyte was activated with ConA (1 μg/ml). The K6PC-9P and K6PC-9 were pre-treated 30 minutes before the treatment with ConA. 48 hours after the treatment with ConA, culture supernatant was collected, and subject to the ELISA (enzyme-linked immunosorbent assay). The ELISA used an ELISA kit from a R&D system, and performed experiments, as follows. However, the method specified later is described as one example, and the method is identical over the entire procedures, but densities of antibodies and standard sample may be slightly varied depending on the kinds of cytokines to be measured. A capture antibody was diluted to a density of 0.6 μg/ml, and transferred to an ELISA plate by 100 μl, and the plate was sealed and kept overnight at a room temperature. The capture antibody was discarded, and the plate was washed three times with a wash buffer (PBS containing 0.05% Tween 20 (pH 7.4)). 200 μl of a blocking buffer (PBS containing 1% BSA, 5% sucrose and 0.05% NaN) was put into plate wells, kept at a room temperature for 1 hour, and then washed three times with a wash buffer. The collected culture supernatant and the standard sample were prepared using a dilution buffer (TBS containing 0.1% BSA and 0.05% Tween 20), put into plate wells, and then kept at a room temperature for 2 hours. The plate was washed three times with a wash buffer, and a biotinylated detection antibody was diluted with a dilution buffer to a density of 200 ng/ml, and then put into the plate wells. 2 hours after the treatment, the plate was washed three times with a wash buffer, and streptavidin HRP was added to the plate, and then kept for 20 minutes. […] When the colors were suitably developed on the plate, the reaction was stopped with a stop solution (1M H2SO4), and its absorbance was measured at wavelengths of 450 nm and 540 nm. A standard curve was plotted using the standard absorbance obtained by subtracting a 540 nm absorbance value from a 450 nm absorbance value, and a density of cytokines to be measured was calculated using the standard absorbance of the culture supernatant.

NC/Nga mouse = experiment: Atopic dermatitis caused by dust mite extract in NC/Nga mouse, ear thickness; type: in vivo; details: two kinds of dust mites (D. pteronyssinus, D. farinae), applied to ear dorsal surface 30 minutes before extract, 16 days, FIGS. 2 and 3
Excerpt: Next, an animal model (NC/Nga mouse) where a mouse suffers from atopic dermatitis was used to evaluate an inflammation control effects of the K6PC-9P on the atopic dermatitis. The NC/Nga mouse is a mouse that spontaneously suffers from the dermatitis, and has been proven to be an animal model that is the most suitably used to treat atopic dermatitis. Therefore, The NC/Nga mouse has been widely used in the animal model to evaluate substances that are effective to treat the atopic dermatitis. For this experiment, a dust mite that is a representative inducer factor of the atopic dermatitis was applied to a NC/Nga mouse to induce the dermatitis.
The extract of dust mite (Dermatophagoides pteronyssinus, Dermatophagoides farinae) was commercially available from Woongbee Meditech Co. (Korea), and the dust mite extract was dissolved in 10 mg/ml of phosphate buffered saline (PBS) containing 0.5% Tween 20, and then used herein. NC/Nga mice were bred under conventional breeding conditions, and induced to develop into the atopic dermatitis. […] The […] and K6PC-9 were applied onto the ear dorsal surfaces of the mice 30 minutes before the application of the dust mite extract, and the efficiency of the therapeutic agent was evaluated for a level of an intercurrent disease by measuring a thickness of a mouse ear.

hairless mouse = experiment: Suppression of epidermal proliferation in tape-stripping hyperplasia model, epidermal thickness (H&E); type: in vivo; details: tape stripping twice per day for 5 days, 1% applied twice per day for 3 days, compared to the control (vehicle)
Excerpt: Effects on Suppression of Epidermal Proliferation Next, in order to evaluate effects of the K6PC-9P on the skin hyperplasia that is one of the representative skin disorders in the atopic dermatitis, a hyperplasia model where a mouse has overgrown cuticles was established by repeating a tape stripping procedure on a hairless mouse in the Examples according to the present invention. This hyperplasia model was established since the atopic skin has ill-balanced conditions in the epidermal proliferation and differentiation, and particularly has an increased epidermal proliferation level, but has a pattern in which mouse epidermis grows abnormally due to the reduced differentiation level. Accordingly, to recover this ill-balanced condition into a normal state may be considered to be an important point to treat the atopic dermatitis.
Hyperplasia in the back of a hairless mouse was induced by subjecting the tape stripping procedure twice per day for 5 days, and 1% K6PC-9P was applied to the hairless mouse twice per day for 3 days from the third day to fifth day of the induction of the atopic dermatitis. Then, mouse skin tissues were biopsied and fixed into a paraffin wax, and determined for epidermal thickness using a Hematoxylin & Eosin staining method. […]

| SMILES | generation of the Th1 cytokine, interleukin-2 (T lymphocyte) | generation of the Th2 cytokine, interleukin-4 (T lymphocyte) | increase in the thickness of the mouse ear caused by dust mite extract (NC/Nga mouse) | growth of the mouse epidermis (epidermal thickness) (hairless mouse) |
| --- | --- | --- | --- | --- |
| CCCCCCCC(=O)C(CCCCCC)C(=O)NCCO (stereo not shown) [K6PC-9, N-ethanol-2-hexyl-3-oxo-decanamide, reference compound] | does not affect | does not affect | slight suppression effect | – |
| CCCCCCCC(=O)C(CCCCCC)C(=O)NCCOP(=O)(O)O (stereo not shown) [K6PC-9P, N-(ethyl dihydrogenphosphate)-2-hexyl-3-oxo-decanamide] | increases | decreases | significantly suppresses | suppressed significantly |
